In US9322049B2, “Activation and activators of SirT6” (CORNELL UNIVERSITY, priority 2009, dated 2016):

Molecular target: T1, SirT6 (Homo sapiens, UniProt Q8N6T7)
T1 construct: The protein expression and purification were the same as the full length SIRT6 as described above; made in house; host or cells: E. coli BL21 Codon-plus RIPL
Assay: Separation of SIRT6-DNA complex on Ni-NTA resin and Kd of DNA by gel electrophoresis (Example 6)
Type: binding
Protocol: The linearized DNA was incubated with SirT6 and Ni-NTA resin. The resin was washed as described in Materials and Methods, and the complex of SirT6-DNA was dissociated by 1 mM suramin. The parallel experiments were done in the presence of 500 uM H3 peptide. DNA bound to SirT6 was quantified and fit to Michaelis-Menten equation to get Kd of DNA binding to the enzyme. […] The single stranded DNA was incubated with SirT6 and Ni-NTA resin. The resin was washed and the complex of SirT6-ssDNA was dissociated by 1 mM suramin. The parallel experiments were done in the presence of 500 uM H3 peptide. […] The linearized DNA was incubated with SirT6 and Ni-NTA resin with or without H3 peptide. After washing, the resin was incubated with different concentration of surmain. The dissociated DNA was quantified by gel electrophoresis. […] After the resin was washed, DNA was dissociated with 1 mM suramin and quantified by gel electrophoresis. Lane 1, 150 ng circular pSTBlue (C-pSTBlue); Lane 2, 150 ng pSTBlue cut with BamHI (B-pSTBlue); Lane 3, 150 ng pSTBlue cut with EcoRV (E-pSTBlue); Lane 4, circular pSTBlue bound to SirT6; Lane 5, pSTBlue cut with BamHI bound to SirT6; Lane 6, pSTBlue cut with EcoRV bound to SirT6; Lane 7, circular pSTBlue bound to SirT6 in the presence of H3; Lane 8, pSTBlue cut with BamHI bound to SirT6 in the presence of H3; Lane 9, pSTBlue cut with EcoRV bound to SirT6 in the presence of H3; Lane 10, DNA ladder.
25% slurry of Ni-NTA resin was incubated with 5 μM SIRT6 and 500 μM H3 peptide for 1 hour at room temperature, in addition with different concentration of pSTBlue which was linearized with BamHI or different concentration of single stranded DNA, and/or 500 μM H3 peptide. After incubation, the resin was spun at 4,000 rpm for 1 minute, and was washed with 10 fold of resin volume with 10 mM imidazole, 100 mM phosphate buffer, pH 7.5, and then 10 fold volume of resin volume with 20 mM imidazole, 10 mM phosphate buffer, pH 7.5. The SIRT6-DNA complex was separated from the resin by adding 250 mM imidazole, 100 mM phosphate buffer, pH 7.5. […] The DNA bound to SIRT6 was then quantified by DNA gel electrophoresis: Linearized pSTBlue was quantified by 0.8% agarose gel electrophoresis using Tris-acetate acid buffer (1×TAE) run at room temperature; single stranded DNA was quantified by 6% acrylamide gel using Tris-boric acid buffer (1×TBE) run at room temperature. […]
In order to test if SIRT6 distinguished different DNA in the binding, pSTBlue was cut with different enzymes and purified by […]™ III kit (MP Biomedicals, LLC). […] DNA was then dissociated from SIRT6 by adding suramin to a final concentration of 1 mM and quantified by 0.8% agarose gel electrophoresis.

[1] = in the presence of 500 uM H3 peptide

T1 sequence (Q8N6T7 whole entry): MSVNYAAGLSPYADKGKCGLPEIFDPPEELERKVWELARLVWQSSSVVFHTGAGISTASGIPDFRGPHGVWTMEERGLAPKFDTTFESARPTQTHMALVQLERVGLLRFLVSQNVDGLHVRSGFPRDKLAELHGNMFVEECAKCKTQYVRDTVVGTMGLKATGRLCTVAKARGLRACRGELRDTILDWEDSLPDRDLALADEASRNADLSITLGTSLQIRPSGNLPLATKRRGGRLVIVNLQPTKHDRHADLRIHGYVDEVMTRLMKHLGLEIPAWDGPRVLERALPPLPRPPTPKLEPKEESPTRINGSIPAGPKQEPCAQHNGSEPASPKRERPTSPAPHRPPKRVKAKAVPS

ssDNA: ssDNA 5′ GGGGATCCATGAAGATGAGCTTTGCGTTGACT 3′ (SEQ ID NO: 9), Integrated DNA Technologies (DNA, backbone and methylation of C not given here)
Kd of DNA binding to SirT6 (in the absence of H3): 195.5 µg/mL | Vmax of DNA bound to SirT6 (in the absence of H3): 151.7 ng/µL | Kd of DNA binding to SirT6 [1]: 238.8 µg/mL | Vmax of DNA bound to SirT6 [1]: 333.5 ng/µL
